The source made the active and inactive calls. The calls are words filed in the database; no cut-off is given here.
How the values were obtained:
Mus musculus [1] = test: Induction of PARP cleavage in human MDA-MB-231 cells xenografted in SCID mouse at 100 mg/kg, po administered as single dose measured after 2 hrs by Western blot analysis; assay type: functional, organism-based; design: dose 100 mg/kg
Mus musculus [2] = test: Induction of PARP cleavage in human MDA-MB-231 cells xenografted in SCID mouse at 100 mg/kg, po administered as single dose measured after 16 hrs by Western blot analysis; assay type: functional, organism-based; design: dose 100 mg/kg
MDA-MB-231 [3] = test: Induction of apoptosis in human MDA-MB-231 cells assessed as activation of PARP cleavage at 1.5 uM after 12 hrs by Western blot analysis; assay type: functional, cell-based
Mus musculus [4] = test: Induction of procaspase-8 processing in human MDA-MB-231 cells xenografted in SCID mouse at 100 mg/kg, po administered as single dose measured after 6 hrs by Western blot analysis; assay type: functional, organism-based; design: dose 100 mg/kg
Mus musculus [5] = test: Induction of degradation of cIAP1 in human MDA-MB-231 cells xenografted in SCID mouse at 100 mg/kg, po administered as single dose measured after 2 hrs by Western blot analysis; assay type: functional, organism-based; design: dose 100 mg/kg
MDA-MB-231 [6] = test: Antitumor activity against human MDA-MB-231 cells xenografted in SCID mouse assessed inhibition of tumor growth at 10 mg/kg, po administered daily for 5 days/week for 2 weeks; assay type: functional, organism-based; design: dose 10 mg/kg
Mus musculus [7] = test: Induction of degradation of cIAP1 in human MDA-MB-231 cells xenografted in SCID mouse at 100 mg/kg, po administered as single dose measured after 16 hrs by Western blot analysis; assay type: functional, organism-based; design: dose 100 mg/kg
MDA-MB-231 [8] = test: Induction of cell death in human MDA-MB-231 cells incubated for 24 hrs by trypan blue exclusion assay; assay type: functional, cell-based
MDA-MB-231 [9] = test: Antitumor activity against human MDA-MB-231 cells xenografted in SCID mouse assessed inhibition of tumor growth at 100 mg/kg, po administered daily for 5 days/week for 2 weeks; assay type: functional, organism-based; design: dose 100 mg/kg
MDA-MB-231 [10] = test: Antitumor activity against human MDA-MB-231 cells xenografted in SCID mouse assessed inhibition of tumor growth at 30 mg/kg, po administered daily for 5 days/week for 2 weeks; assay type: functional, organism-based; design: dose 30 mg/kg
Mus musculus [11] = test: Induction of procaspase-8 processing in human MDA-MB-231 cells xenografted in SCID mouse at 100 mg/kg, po administered as single dose measured after 2 hrs by Western blot analysis; assay type: functional, organism-based; design: dose 100 mg/kg
MDA-MB-231 [12] = test: Induction of apoptosis in human MDA-MB-231 cells assessed as activation of caspase-3 activity at 1.5 uM after 12 hrs by Western blot analysis; assay type: functional, cell-based
MDA-MB-231 [13] = test: Induction of cell death in human MDA-MB-231 cells at 1 uM by trypan blue exclusion assay; assay type: functional, cell-based; conditions: TDE = time-dependent effect
Mus musculus [14] = test: Induction of PARP cleavage in human MDA-MB-231 cells xenografted in SCID mouse at 100 mg/kg, po administered as single dose measured after 6 hrs by Western blot analysis; assay type: functional, organism-based; design: dose 100 mg/kg
[15] = target: Baculoviral IAP repeat-containing protein 2 (Homo sapiens, UniProt Q13490)
Mus musculus [16] = test: Induction of degradation of cIAP1 in human MDA-MB-231 cells xenografted in SCID mouse at 7.5 mg/kg, iv administered as single dose measured after 24 hrs by Western blot analysis; assay type: functional, organism-based; design: dose 7.5 mg/kg
Mus musculus [17] = test: Induction of procaspase-8 processing in human MDA-MB-231 cells xenografted in SCID mouse at 7.5 mg/kg, iv administered as single dose measured after 24 hrs by Western blot analysis; assay type: functional, organism-based; design: dose 7.5 mg/kg
Mus musculus [18] = test: Toxicity in human MDA-MB-231 cells xenografted in SCID mouse assessed weight loss at 7.5 mg/kg, iv administered once/week for 2 weeks; conditions: in vivo, 336 h
MDA-MB-231 [19] = test: Antitumor activity against human MDA-MB-231 cells xenografted in SCID mouse assessed inhibition of tumor growth at 7.5 mg/kg, iv administered once/week for 2 weeks
Mus musculus [20] = test: Induction of PARP cleavage in human MDA-MB-231 cells xenografted in SCID mouse at 7.5 mg/kg, iv administered as single dose measured after 24 hrs by Western blot analysis; assay type: functional, organism-based; design: dose 7.5 mg/kg

Sequence of Baculoviral IAP repeat-containing protein 2 (Q13490 whole entry): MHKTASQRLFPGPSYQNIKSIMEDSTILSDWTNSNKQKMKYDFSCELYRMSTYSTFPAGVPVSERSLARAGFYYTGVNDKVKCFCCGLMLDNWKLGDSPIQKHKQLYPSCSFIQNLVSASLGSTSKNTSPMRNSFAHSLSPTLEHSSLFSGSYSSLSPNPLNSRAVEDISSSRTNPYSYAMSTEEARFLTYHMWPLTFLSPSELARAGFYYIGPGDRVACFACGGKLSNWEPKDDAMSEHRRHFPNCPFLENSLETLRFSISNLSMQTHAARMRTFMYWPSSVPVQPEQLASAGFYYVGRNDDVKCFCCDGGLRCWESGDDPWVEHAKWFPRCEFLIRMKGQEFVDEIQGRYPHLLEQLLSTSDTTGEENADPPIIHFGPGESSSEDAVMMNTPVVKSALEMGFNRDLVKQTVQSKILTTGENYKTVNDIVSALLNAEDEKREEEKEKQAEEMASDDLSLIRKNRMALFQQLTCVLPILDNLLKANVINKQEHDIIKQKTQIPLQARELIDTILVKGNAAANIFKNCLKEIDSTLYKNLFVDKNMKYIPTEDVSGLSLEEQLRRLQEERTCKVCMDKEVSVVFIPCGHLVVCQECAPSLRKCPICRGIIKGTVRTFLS

CN[C@@H](C)C(=O)N[C@H]1CN(C(=O)CC(C)C)CC[C@H]2CC[C@@H](C(=O)NC(c3ccccc3)c3ccccc3)N2C1=O
Activity (Mus musculus [1]): Active
Activity (Mus musculus [2]): Active
Activity (MDA-MB-231 [3]): Active
Activity (Mus musculus [4]): Active
Activity (Mus musculus [5]): Active
TGI (MDA-MB-231 [6]): inactive
Activity (Mus musculus [7]): Active
Activity (MDA-MB-231 [8]): Dose-dependent effect
TGI (MDA-MB-231 [9]): Active
TGI (MDA-MB-231 [10]): Active
Activity (Mus musculus [11]): Active
Activity (MDA-MB-231 [12]): Active
Activity (MDA-MB-231 [13]): tde
Activity (Mus musculus [14]): Active

CN[C@@H](C)C(=O)N[C@H]1CN(C(=O)CC(C)C)CC[C@H]2CC[C@@H](C(=O)N[C@@H](c3ccccc3)c3cn(CCCCCCCCCCNC(=O)CCCCCNC(=O)CCCC[C@@H]4SC[C@@H]5NC(=O)N[C@@H]54)nn3)N2C1=O
Ki [15]: < 1 nM

CC(=O)O[C@@]12CO[C@@H]1C[C@H](O)[C@@]1(C)C(=O)[C@H](O)C3=C(C)[C@@H](OC(=O)[C@H](O)[C@@H](NC(=O)OC(C)(C)C)c4ccccc4)C[C@@](O)([C@@H](OC(=O)c4ccccc4)[C@H]21)C3(C)C.O.O.O [DOCETAXEL]
Activity (Mus musculus [16]): inactive
Activity (Mus musculus [17]): Active
Activity (Mus musculus [18]): Toxic
TGI (MDA-MB-231 [19]): Active
Activity (Mus musculus [20]): inactive

— ChEMBL document CHEMBL2157893, “A potent and orally active antagonist (SM-406/AT-406) of multiple inhibitor of apoptosis proteins (IAPs) in clinical development for cancer treatment” (J Med Chem, 2011)
